# Results reported in PubChem BioAssay AID2060627 (Molecular Pharmacology Branch, DTP, NCI, 2025).
# System: 156681-154-R-J1-PDC complex spheroid viability
# Assay: Anticancer human tumor 156681-154-R-J1-PDC patient-derived melanoma cell line growth inhibition [CLK]
# Conditions: for IC50: curve of first compound; for viability, T/C: stronger effect = lower value
# Outline: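 Patient-derived tumor cells grown as complex spheroids with HUVEC endothelial cells and mesenchymal stem cells, treated with drug combinations. Concentrations descend in half-log steps from near clinical Cmax, or from 10 microM if Cmax unknown.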
# 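Also: spheroids exposed to the agents for seven days.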
# 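For viability, T/C in this document: 100% = DMSO vehicle control viability.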
smiles,measurement,setting,value
CCN1CCN(Cc2ccc(Nc3ncc(F)c(-c4cc(F)c5nc(C)n(C(C)C)c5c4)n3)nc2)CC1 + CN1CCN(c2cc(C(=O)Nc3cc4cc(-c5cnn(C)c5)ccc4cn3)ccn2)CC1,IC50,second compound 0.0316 µM,665 nM
same,IC50,second compound 0.1 µM,807 nM
same,IC50,second compound 0.316 µM,< 3.16 nM
same,IC50,second compound 1 µM,< 3.16 nM
same,IC50,second compound 3.16 µM,< 3.16 nM
same,IC50,second compound 10 µM,< 3.16 nM
same,"viability, T/C","second compound 0.0316 µM, first compound 0.00316 µM",97%
same,"viability, T/C","second compound 0.0316 µM, first compound 0.01 µM",94.9%
same,"viability, T/C","second compound 0.0316 µM, first compound 0.0316 µM",87.5%
same,"viability, T/C","second compound 0.0316 µM, first compound 0.1 µM",77.6%
same,"viability, T/C","second compound 0.0316 µM, first compound 0.316 µM",71.8%
same,"viability, T/C","second compound 0.0316 µM, first compound 1 µM",39.1%
same,"viability, T/C","second compound 0.1 µM, first compound 0.00316 µM",96.2%
same,"viability, T/C","second compound 0.1 µM, first compound 0.01 µM",76.2%
same,"viability, T/C","second compound 0.1 µM, first compound 0.0316 µM",70.6%
same,"viability, T/C","second compound 0.1 µM, first compound 0.1 µM",89.9%
same,"viability, T/C","second compound 0.1 µM, first compound 0.316 µM",67.2%
same,"viability, T/C","second compound 0.1 µM, first compound 1 µM",46.1%
same,"viability, T/C","second compound 0.316 µM, first compound 0.00316 µM",21.6%
same,"viability, T/C","second compound 0.316 µM, first compound 0.01 µM",21.1%
same,"viability, T/C","second compound 0.316 µM, first compound 0.0316 µM",17.8%
same,"viability, T/C","second compound 0.316 µM, first compound 0.1 µM",23.1%
same,"viability, T/C","second compound 0.316 µM, first compound 0.316 µM",18.7%
same,"viability, T/C","second compound 0.316 µM, first compound 1 µM",9.12%
same,"viability, T/C","second compound 1 µM, first compound 0.00316 µM",0.15%
same,"viability, T/C","second compound 1 µM, first compound 0.01 µM",0.55%
same,"viability, T/C","second compound 1 µM, first compound 0.0316 µM",3.58%
same,"viability, T/C","second compound 1 µM, first compound 0.1 µM",0.43%
same,"viability, T/C","second compound 1 µM, first compound 0.316 µM",1.38%
same,"viability, T/C","second compound 1 µM, first compound 1 µM",0.47%
same,"viability, T/C","second compound 3.16 µM, first compound 0.00316 µM",0.8%
same,"viability, T/C","second compound 3.16 µM, first compound 0.01 µM",1.88%
same,"viability, T/C","second compound 3.16 µM, first compound 0.0316 µM",0.12%
same,"viability, T/C","second compound 3.16 µM, first compound 0.1 µM",1.66%
same,"viability, T/C","second compound 3.16 µM, first compound 0.316 µM",2.74%
same,"viability, T/C","second compound 3.16 µM, first compound 1 µM",1.56%
same,"viability, T/C","second compound 10 µM, first compound 0.00316 µM",0.1%
same,"viability, T/C","second compound 10 µM, first compound 0.01 µM",0.55%
same,"viability, T/C","second compound 10 µM, first compound 0.0316 µM",0.69%
same,"viability, T/C","second compound 10 µM, first compound 0.1 µM",0.18%
same,"viability, T/C","second compound 10 µM, first compound 0.316 µM",0.5%
same,"viability, T/C","second compound 10 µM, first compound 1 µM",3.25%
NC(=O)C(=Cn1cnc(-c2cc(C(F)(F)F)cc(C(F)(F)F)c2)n1)c1cncnc1 + CNC(=O)c1ccc(Nc2nc(OC3CCCC3)c3c(-c4ccc5nc(C)oc5c4)c[nH]c3n2)c(OC)c1,IC50,second compound 0.0316 µM,61.9 nM
same,IC50,second compound 0.1 µM,< 9.49 nM
same,IC50,second compound 0.316 µM,33.2 nM
same,IC50,second compound 1 µM,< 9.49 nM
same,IC50,second compound 3.16 µM,< 9.49 nM
same,IC50,second compound 10 µM,< 9.49 nM
same,"viability, T/C","second compound 0.0316 µM, first compound 0.00949 µM",64.7%
same,"viability, T/C","second compound 0.0316 µM, first compound 0.03 µM",81%
same,"viability, T/C","second compound 0.0316 µM, first compound 0.0949 µM",36.6%
same,"viability, T/C","second compound 0.0316 µM, first compound 0.3 µM",14%
same,"viability, T/C","second compound 0.0316 µM, first compound 0.949 µM",6.14%
same,"viability, T/C","second compound 0.0316 µM, first compound 3 µM",3.87%
same,"viability, T/C","second compound 0.1 µM, first compound 0.00949 µM",37.9%
same,"viability, T/C","second compound 0.1 µM, first compound 0.03 µM",52.5%
same,"viability, T/C","second compound 0.1 µM, first compound 0.0949 µM",33%
same,"viability, T/C","second compound 0.1 µM, first compound 0.3 µM",18.4%
same,"viability, T/C","second compound 0.1 µM, first compound 0.949 µM",6.15%
same,"viability, T/C","second compound 0.1 µM, first compound 3 µM",4.5%
same,"viability, T/C","second compound 0.316 µM, first compound 0.00949 µM",52.4%
same,"viability, T/C","second compound 0.316 µM, first compound 0.03 µM",53.7%
same,"viability, T/C","second compound 0.316 µM, first compound 0.0949 µM",23.7%
same,"viability, T/C","second compound 0.316 µM, first compound 0.3 µM",7.53%
same,"viability, T/C","second compound 0.316 µM, first compound 0.949 µM",3.12%
same,"viability, T/C","second compound 0.316 µM, first compound 3 µM",3.35%
same,"viability, T/C","second compound 1 µM, first compound 0.00949 µM",40.3%
same,"viability, T/C","second compound 1 µM, first compound 0.03 µM",45%
same,"viability, T/C","second compound 1 µM, first compound 0.0949 µM",7.8%
same,"viability, T/C","second compound 1 µM, first compound 0.3 µM",1.43%
same,"viability, T/C","second compound 1 µM, first compound 0.949 µM",1.06%
same,"viability, T/C","second compound 1 µM, first compound 3 µM",0.77%
same,"viability, T/C","second compound 3.16 µM, first compound 0.00949 µM",37.5%
same,"viability, T/C","second compound 3.16 µM, first compound 0.03 µM",22.1%
same,"viability, T/C","second compound 3.16 µM, first compound 0.0949 µM",4.21%
same,"viability, T/C","second compound 3.16 µM, first compound 0.3 µM",1.37%
same,"viability, T/C","second compound 3.16 µM, first compound 0.949 µM",1.03%
same,"viability, T/C","second compound 3.16 µM, first compound 3 µM",0.18%
same,"viability, T/C","second compound 10 µM, first compound 0.00949 µM",28.5%
same,"viability, T/C","second compound 10 µM, first compound 0.03 µM",24.2%
same,"viability, T/C","second compound 10 µM, first compound 0.0949 µM",3.92%
same,"viability, T/C","second compound 10 µM, first compound 0.3 µM",1%
same,"viability, T/C","second compound 10 µM, first compound 0.949 µM",1.5%
same,"viability, T/C","second compound 10 µM, first compound 3 µM",0.26%
